Laboratory results reported in US8466153B2, “Piperidinylamino-pyridazines and their use as fast dissociating dopamine 2 receptor antagonists” (Janssen Pharmaceutica N.V., priority 2006, dated 2013).
Read-outs that look alike come from different tables or passages of the source.

Legend:
[1] = biological target: T1, human Dopamine D2L receptor (Homo sapiens, UniProt P14416); assay: In vitro binding affinity for human D2L receptor ([3H]spiperone competition); conditions: membranes of human D2L receptor-transfected CHO cells, 30 min, 37° C.
T1 construct: expressed in transfected cells; host or cells: CHO cells
T1 sequence (P14416 whole entry): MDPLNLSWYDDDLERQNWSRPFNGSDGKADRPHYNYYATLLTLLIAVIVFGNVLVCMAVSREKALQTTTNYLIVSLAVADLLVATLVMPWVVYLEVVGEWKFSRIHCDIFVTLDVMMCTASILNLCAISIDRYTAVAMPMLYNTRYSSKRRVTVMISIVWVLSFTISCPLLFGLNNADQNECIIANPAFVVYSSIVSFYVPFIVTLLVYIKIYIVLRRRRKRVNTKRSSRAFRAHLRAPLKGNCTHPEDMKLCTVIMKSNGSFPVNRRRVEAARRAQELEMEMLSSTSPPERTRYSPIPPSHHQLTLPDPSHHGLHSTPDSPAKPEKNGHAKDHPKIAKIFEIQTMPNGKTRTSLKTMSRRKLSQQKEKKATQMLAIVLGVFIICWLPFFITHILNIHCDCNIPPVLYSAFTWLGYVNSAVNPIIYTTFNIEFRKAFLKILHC
Description: In order to find antipsychotic compounds active against positive symptoms and having an improved safety profile (low EPS incidence and no metabolic disorders), we have screened for compounds selectively interacting with the dopamine D2 receptor and dissociating fast from this receptor. Compounds were first screened for their D2 affinity in a binding assay using [^3H]spiperone and human D2L receptor cell membranes.
Frozen membranes of human Dopamine D2L receptor-transfected CHO cells were thawed, briefly homogenised using an Ultra-Turrax T25 homogeniser and diluted in Tris-HCl assay buffer containing NaCl, CaCl2, MgCl2, KCl (50, 120, 2, 1, and 5 mM respectively, adjusted to pH 7.7 with HCl) to an appropriate protein concentration optimised for specific and non-specific binding. Radioligand [^3H]Spiperone (NEN, specific activity ˜70 Ci/mmol) was diluted in assay buffer at a concentration of 2 nmol/L. Prepared radioligand (50 μl), along with 50 μl of either the 10% DMSO control, Butaclamol (10^−6 mol/l final concentration), or compound of interest, was then incubated (30 min, 37° C.) with 400 μl of the prepared membrane solution. Membrane-bound activity was filtered through a Packard Filtermate harvester onto GF/B Unifilterplates and washed with ice-cold Tris-HCl buffer (50 mM; pH 7.7; 6×0.5 ml). Filters were allowed to dry before adding scintillation fluid and counting in a Topcount scintillation counter. Percentage specific bound and competition binding curves were calculated using S-Plus software (Insightful).

[2] = test system: Apomorphine-induced agitation, stereotypy in rats; assay: Inhibition of the apomorphine induced agitation test in rats; type: in vivo; conditions: Rattus norvegicus, 0.5 h, apomorphine 1.0 mg/kg i.v. at 30 min, male Wiga Wistar rats
Experimental: Male Wiga Wistar rats (180-280 g) were administered test compound (sc: subcutaneously; po: orally; n=3 per dose; dose=0.16, 0.63 and 2.5 mg/kg) or solvent and then challenged with apomorphine (1.0 mg/kg, i.v.) at 30 min. The effects of the test compound on the behavioral changes were evaluated according to all-or-none criteria based on the distribution of results in a large series of control data obtained in solvent-pretreated rats.
Apomorphine (1.0 mg/kg, i.v.)-induced agitation, stereotypy (compulsive sniffing, licking, chewing), was scored every 5 min over the first hour after injection of apomorphine. The score system was: (3) pronounced, (2) moderate, (1) slight, and (0) absent. […] The table below gives the lowest active dose at which 3 out of 3 rats tested met one of the criteria for drug-induced inhibition of agitation.

human D2L receptor = biological target: T2, human D2L receptor (Homo sapiens, UniProt P14416); assay: Fast dissociation (indirect [3H]spiperone filter assay); type: binding; conditions: compound at 4 times its IC50 pre-incubated 1 h at 25° C.; [3H]spiperone 1 nM on filter for 5 minutes
T2 construct: expressed in transfected cells
T2 sequence (P14416 whole entry): as above
Experimental: Compounds were first screened for their D2 affinity in a binding assay using [^3H]spiperone and human D2L receptor cell membranes.
Immediately after, the vacuum was released. 0.4 ml of pre-warmed buffer (25° C.) containing 1 nM [^3H]spiperone was added on the filter for 5 minutes. The incubation was stopped by initiating the vacuum and immediate rinsing with 2×5 ml of ice-cold buffer. The filter-bound radioactivity was measured in a liquid scintillation spectrometer. The principle of the assay is based on the assumption that the faster a compound dissociates from the D2 receptor, the faster [^3H]spiperone binds to the D2 receptor.

[3] = test system: panel of more than 50 common G-protein coupled receptors (CEREP); assay: Screen in a panel of more than 50 common G-protein coupled receptors (CEREP); type: binding; conditions: panel of more than 50 GPCRs
Description: Selected compounds E15, E16, E17 and E18 were further screened in a panel of more than 50 common G-protein coupled receptors (CEREP) and found to have a clean profile, that is to have low affinity for the tested receptors.

[4] = sc, subcutaneously, read-out: sc Dose: lowest active dose at which 3 out of 3 rats met a criterion for inhibition of agitation
[5] = po, orally, read-out: po Dose: lowest active dose at which 3 out of 3 rats met a criterion for inhibition of agitation

SMILES	IC50 [1]	minimal effective dose [2, 4]	melting point	minimal effective dose [2, 5]	% Dissociation (human D2L receptor)	affinity profile for the tested receptors [3]
N#Cc1ccc(NC2CCN(Cc3ccccc3)CC2)nn1 [Example D2, 6-(1-Benzyl-piperidin-4-ylamino)-pyridazin-3-carbonitrile]	2.95 µM	2.5 mg/kg	–	–	–	–
N#Cc1ccc(NC2CCN(Cc3ccc(F)c(F)c3)CC2)nn1 [Example E1, 6-[1-(3,4-Difluoro-benzyl)-piperidin-4-ylamino]-pyridazine-3-carbonitrile]	4.07 µM	2.5 mg/kg	189.86 °C	–	–	–
N#Cc1ccc(NC2CCN(Cc3ccc(F)cc3)CC2)nn1 [Example E2, 6-[1-(4-Fluoro-benzyl)-piperidin-4-ylamino]-pyridazine-3-carbonitrile]	3.24 µM	0.63 mg/kg	187.44 °C	0.63 mg/kg	–	–
N#Cc1ccc(NC2CCN(Cc3ccc(Cl)cc3)CC2)nn1 [Example E3, 6-[1-(4-Chloro-benzyl)-piperidin-4-ylamino]-pyridazine-3-carbonitrile]	1.05 µM	0.63 mg/kg	209.77 °C	–	87%	–
Cc1ccc(CN2CCC(Nc3ccc(C#N)nn3)CC2)cc1F [Example E4, 6-[1-(3-Fluoro-4-methyl-benzyl)-piperidin-4-ylamino]-pyridazine-3-carbonitrile]	0.407 µM	0.16 mg/kg	171.84 °C	–	82%	–
N#Cc1ccc(NC2CCN(Cc3cccc(F)c3)CC2)nn1 [Example E5, 6-[1-(3-Fluoro-benzyl)-piperidin-4-ylamino]-pyridazine-3-carbonitrile]	6.03 µM	2.5 mg/kg	190.3 °C	–	–	–
Cc1ccc(CN2CCC(Nc3ccc(C#N)nn3)CC2)cc1 [Example E6, 6-[1-(4-Methyl-benzyl)-piperidin-4-ylamino]-pyridazine-3-carbonitrile]	0.955 µM	2.5 mg/kg	191.62 °C	–	84%	–
N#Cc1ccc(NC2CCN(Cc3ccc(C(F)(F)F)cc3)CC2)nn1 [Example E7, 6-[1-(4-Trifluoromethyl-benzyl)-piperidin-4-ylamino]-pyridazine-3-carbonitrile]	> 10 µM	0.63 mg/kg	243.1 °C	2.5 mg/kg	93.50%	–
N#Cc1ccc(NC2CCN(Cc3ccc(C(F)(F)F)c(F)c3)CC2)nn1 [Example E8, 6-[1-(3-Fluoro-4-trifluoromethyl-benzyl)-piperidin-4-ylamino]-pyridazine-3-carbonitrile]	7.59 µM	2.5 mg/kg	178.6 °C	2.5 mg/kg	89.50%	–
N#Cc1ccc(NC2CCN(Cc3ccc(F)c(C(F)(F)F)c3)CC2)nn1 [Example E9, 6-[1-(4-Fluoro-3-trifluoromethyl-benzyl)-piperidin-4-ylamino]-pyridazine-3-carbonitrile]	6.76 µM	2.5 mg/kg	183.1 °C	–	–	–
Cc1ccc(CN2CCC(Nc3ccc(C#N)nn3)CC2)cc1C(F)(F)F [Example E10, 6-[1-(4-Methyl-3-trifluoromethyl-benzyl)-piperidin-4-ylamino]-pyridazine-3-carbonitrile]	6.46 µM	> 2.5 mg/kg	187.3 °C	–	–	–
N#Cc1ccc(NC2CCN(Cc3cc(C(F)(F)F)cc(C(F)(F)F)c3)CC2)nn1 [Example E11, 6-[1-(3,5-Bis-trifluoromethyl-benzyl)-piperidin-4-ylamino]-pyridazine-3-carbonitrile]	> 10 µM	–	125 °C	–	–	–
N#Cc1ccc(NC2CCN(Cc3cc(C(F)(F)F)ccc3F)CC2)nn1 [Example E12, 6-[1-(2-Fluoro-5-trifluoromethyl-benzyl)-piperidin-4-ylamino]-pyridazine-3-carbonitrile]	6.31 µM	> 2.5 mg/kg	142.5 °C	–	–	–
N#Cc1ccc(NC2CCN(Cc3cccc(Cl)c3)CC2)nn1 [Example E13, 6-[1-(3-Chloro-benzyl)-piperidin-4-ylamino]-pyridazine-3-carbonitrile]	3.24 µM	2.5 mg/kg	151 °C	–	–	–
N#Cc1ccc(NC2CCN(Cc3ccc(OC(F)(F)F)c(Cl)c3)CC2)nn1 [Example E14, 6-[1-(3-Chloro-4-trifluoromethoxy-benzyl)-piperidin-4-ylamino]-pyridazine-3-carbonitrile]	> 10 µM	–	–	–	–	–
N#Cc1ccc(NC2CCN(Cc3cc(F)cc(F)c3)CC2)nn1 [Example E15, 6-[1-(3,5-Difluoro-benzyl)-piperidin-4-ylamino]-pyridazine-3-carbonitrile]	6.61 µM	0.63 mg/kg	187.9 °C	1.25 mg/kg	93.50%	low affinity
N#Cc1ccc(NC2CCN(Cc3cccc(C(F)(F)F)c3)CC2)nn1 [Example E16, 6-[1-(3-Trifluoromethyl-benzyl)-piperidin-4-ylamino]-pyridazine-3-carbonitrile]	1.41 µM	0.63 mg/kg	170.3 °C	0.63 mg/kg	79.50%	low affinity
N#Cc1ccc(NC2CCN(Cc3cc(F)cc(C(F)(F)F)c3)CC2)nn1 [Example E17, 6-[1-(3-Fluoro-5-trifluoromethyl-benzyl)-piperidin-4-ylamino]-pyridazine-3-carbonitrile]	3.02 µM	0.63 mg/kg	151.4 °C	1.25 mg/kg	73%	low affinity
N#Cc1ccc(NC2CCN(Cc3cc(F)c(F)c(F)c3)CC2)nn1 [Example E18, 6-[1-(3,4,5-Trifluoro-benzyl)-piperidin-4-ylamino]-pyridazine-3-carbonitrile]	5.75 µM	0.63 mg/kg	185 °C	1.25 mg/kg	95%	low affinity
Cc1c(C#N)nnc(NC2CCN(Cc3cc(F)cc(F)c3)CC2)c1C [Example E19, 6-[1-(3,5-Difluoro-benzyl)-piperidin-4-ylamino]-4,5-dimethyl-pyridazine-3-carbonitrile]	1.82 µM	0.63 mg/kg	–	2.5 mg/kg	83.66%	–
Cc1cc(NC2CCN(Cc3cc(F)cc(F)c3)CC2)nnc1C#N [Example E20, 6-[1-(3,5-Difluoro-benzyl)-piperidin-4-ylamino]-4-methyl-pyridazine-3-carbonitrile]	6.17 µM	2.5 mg/kg	–	–	–	–
